{"source": "patent US20230181681A1", "about": "“PEPTIDE FOR SUPPRESSING CORONAVIRUS AND USE THEREOF” (priority 2020, published 2023)", "key": {"HCoV-OC43 [1]": {"test_system": "HCoV-OC43", "assay": "HCoV-OC43 S and N protein production in infected Vero cells (Western blotting, confocal microscopy)", "assay_type": "cell-based", "settings": "0.1 MOI, peptide 6 hours after infection, 48 h, FIGS. 20 to 22"}, "MERS-CoV": {"test_system": "MERS-CoV", "assay_type": "cell-based"}, "SARS-CoV-2": {"test_system": "SARS-CoV-2", "assay_type": "cell-based"}, "HCoV-OC43 [2]": {"test_system": "HCoV-OC43", "assay": "HCoV-OC43 production in Vero cells by plaque formation assay", "assay_type": "cell-based", "settings": "0.1 MOI, 2 μM peptide 6 hours after infection, 48 hours, plaque formation test, FIG. 23"}, "[3]": {"test_system": "interaction of MERS-CoV Spike CD with MERS-CoV N protein", "assay_type": "binding"}, "MERS-CoV N protein": {"test_system": "MERS-CoV N protein", "assay_type": "binding"}}, "note": "Ends that are not written are not given here.", "data": [{"substance": "CCTGCGTSCFKKCGGCCDDYTGYQELVIKTSHDD [Spike CD-OC43]", "values": [{"measurement": "production of S protein and N protein of HCoV-OC43", "setting": "HCoV-OC43 [1]", "result": "no effect was observed"}]}, {"substance": "NH2-d-RRRRRRRRRR-AQARRKNYGQLDIFP-COOH [R-CP-1]", "values": [{"measurement": "MERS-CoV plaque formation", "setting": "MERS-CoV", "result": "no effect was observed"}, {"measurement": "reduction of SARS-CoV-2 production", "setting": "SARS-CoV-2", "result": 40, "unit": "%"}]}, {"substance": "R-Spike CD-OC43 (RRRRRRRRRCCTGCGTSCFKKCGGCCDDYTGYQELVIKTSHDD; not fully specified; cysteine pairing not given here)", "values": [{"measurement": "reduction of HCoV-OC43 production", "setting": "HCoV-OC43 [2]", "result": 20, "unit": "%"}]}, {"substance": "TGCGTNCMGKLKCNRC [Spike CD-F]", "values": [{"measurement": "relative activity in inhibiting the interaction between Spike CD-Full and N protein", "setting": "[3]", "result": "highest activity"}, {"measurement": "binding of Spike CD peptides with N protein", "setting": "MERS-CoV N protein", "result": "can tightly bind with N protein"}]}]}
